Where a name gives a salt, the structure may show the parent alone.
Legend:
JH2 domain of human Tyk2 = biological target: T1, JH2 domain of human Tyk2 (Homo sapiens, UniProt P29597); experiment: JH2 biochemical assay (TR-FRET probe displacement); type: binding; conditions: JH2 biochemical assay
T1 construct: 10×His-tagged TYK2 JH2 domain (amino acid 575-876)
Outline: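 10×His-tagged human TYK2 JH2 (aa 575-876, 2 nM) incubated 60 min with 2 nM fluorescent probe, 0.1 nM Tb anti-His antibody and compound (10-point 3-fold series from […] top). TR-FRET 520/495 nm ratio, falling with probe displacement, normalized and fitted to a 4-parameter logistic for IC50.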

[1] = test system: Tyk2 kinase activity on STAT4; experiment: pSTAT4 cell assay (MSD, NK92 cells); type: cell-based; conditions: compounds 1 hr, stimulated 15 minutes
Outline: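 IC50 values derive from 4-parameter logistic fits of normalized percent activity against log compound concentration. Phospho-STAT was measured by MSD with anti-STAT4 antibodies after 15 min of 30 ng/mL IL2 in serum-starved NK92 cells pretreated 1 hr with compound.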

T1 sequence (P29597 575-876): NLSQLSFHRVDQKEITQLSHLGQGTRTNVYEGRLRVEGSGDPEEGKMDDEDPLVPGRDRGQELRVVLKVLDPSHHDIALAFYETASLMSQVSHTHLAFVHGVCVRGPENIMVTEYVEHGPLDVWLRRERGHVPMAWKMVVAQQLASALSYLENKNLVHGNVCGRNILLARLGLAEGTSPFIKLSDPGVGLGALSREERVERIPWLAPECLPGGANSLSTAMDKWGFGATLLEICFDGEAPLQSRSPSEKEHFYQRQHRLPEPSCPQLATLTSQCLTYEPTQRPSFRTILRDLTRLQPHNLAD

`CC(=O)Nc1cc2c(cn1)C1(CC1)CN2c1cc(NC[C@@H]2CCO2)nc(C(C)(F)F)n1` [Example 163, (S)-N-(1′-(2-(1,1-difluoroethyl)-6-((oxetan-2-ylmethyl)amino)pyrimidin-4-yl)-1′,2′-dihydrospiro[cyclopropane-1,3′-pyrrolo[3,2-c]pyridin]-6′-yl)acetamide] showed an IC50 (JH2 domain of human Tyk2) of no more than 0.01 µM and an IC50 [1] of 0.01 to 0.1 µM.

In the case of `CC(=O)Nc1cc2c(cn1)C1(CC1)CN2c1cc(NCCCF)nc(C(C)(F)F)n1` [Example 164, N-(1′-(2-(1,1-difluoroethyl)-6-((3-fluoropropyl)amino)pyrimidin-4-yl)-1′,2′-dihydrospiro[cyclopropane-1,3′-pyrrolo[3,2-c]pyridin]-6′-yl)acetamide trifluoroacetate], the IC50 (JH2 domain of human Tyk2) is reported as no more than 0.01 µM and the IC50 [1] is reported as 0.01 to 0.1 µM.

Compound `CO[C@@H](C)[C@H](C)Nc1cc(N2CC3(CC3)c3cnc(NC(C)=O)cc32)nc(C(C)(F)F)n1` [Example 165, N-(1′-(2-(1,1-difluoroethyl)-6-(((2S,3S)-3-methoxybutan-2-yl)amino)pyrimidin-4-yl)-1′,2′-dihydrospiro[cyclopropane-1,3′-pyrrolo[3,2-c]pyridin]-6′-yl)acetamide trifluoroacetate] has an IC50 (JH2 domain of human Tyk2) of no more than 0.01 µM and an IC50 [1] of 0.01 to 0.1 µM.

For `CC(=O)Nc1cc2c(cn1)C1(CC1)CN2c1cc(NC2CSC2)nc(C(C)(F)F)n1` [Example 166, N-(1′-(2-(1,1-difluoroethyl)-6-(thietan-3-ylamino)pyrimidin-4-yl)-1′,2′-dihydrospiro[cyclopropane-1,3′-pyrrolo[3,2-c]pyridin]-6′-yl)acetamide trifluoroacetate], the IC50 (JH2 domain of human Tyk2) was no more than 0.01 µM and the IC50 [1] was 0.01 to 0.1 µM.

Work on `CCNc1cc(N2CC3(CC3)c3cnc(NC(C)=O)cc32)nc(C(C)(F)F)n1` [Example 167, N-(1′-(2-(1,1-difluoroethyl)-6-(ethylamino)pyrimidin-4-yl)-1′,2′-dihydrospiro[cyclopropane-1,3′-pyrrolo[3,2-c]pyridin]-6′-yl)acetamide trifluoroacetate] yielded an IC50 (JH2 domain of human Tyk2) of no more than 0.01 µM and an IC50 [1] of 0.1 to 1 µM.

With `CC(=O)Nc1cc2c(cn1)C1(CC1)CN2c1cc(N[C@H]2C[C@@H](F)C2)nc(C(C)(F)F)n1` [Example 168, N-(1′-(2-(1,1-difluoroethyl)-6-(((1s,3s)-3-fluorocyclobutyl)amino)pyrimidin-4-yl)-1′,2′-dihydrospiro[cyclopropane-1,3′-pyrrolo[3,2-c]pyridin]-6′-yl)acetamide trifluoroacetate] the IC50 (JH2 domain of human Tyk2) was 0.01 to 0.1 µM and the IC50 [1] was 0.1 to 1 µM.

In the case of `CC(=O)Nc1cc2c(cn1)C1(CC1)CN2c1cc(NCC(C)F)nc(C(C)(F)F)n1` (stereo not drawn) [Example 169, N-(1′-(2-(1,1-difluoroethyl)-6-((2-fluoropropyl)amino)pyrimidin-4-yl)-1′,2′-dihydrospiro[cyclopropane-1,3′-pyrrolo[3,2-c]pyridin]-6′-yl)acetamide trifluoroacetate], the IC50 (JH2 domain of human Tyk2) is reported as no more than 0.01 µM and the IC50 [1] is reported as 0.01 to 0.1 µM.

`CC(=O)Nc1cc2c(cn1)C1(CC1)CN2c1cc(NCCC(C)F)nc(C(C)(F)F)n1` (stereo not drawn) [Example 170, N-(1′-(2-(1,1-difluoroethyl)-6-((3-fluorobutyl)amino)pyrimidin-4-yl)-1′,2′-dihydrospiro[cyclopropane-1,3′-pyrrolo[3,2-c]pyridin]-6′-yl)acetamide trifluoroacetate] was tested, and the IC50 (JH2 domain of human Tyk2) was no more than 0.01 µM and the IC50 [1] was 0.01 to 0.1 µM.

`COC(C)CNc1cc(N2CC3(CC3)c3cnc(NC(C)=O)cc32)nc(C(C)(F)F)n1` (stereo not drawn) [Example 171, N-(1′-(2-(1,1-difluoroethyl)-6-((2-methoxypropyl)amino)pyrimidin-4-yl)-1′,2′-dihydrospiro[cyclopropane-1,3′-pyrrolo[3,2-c]pyridin]-6′-yl)acetamide trifluoroacetate] was tested, and the IC50 (JH2 domain of human Tyk2) was no more than 0.01 µM and the IC50 [1] was 0.01 to 0.1 µM.

`CO[C@H]1C[C@@H](Nc2cc(N3CC4(CC4)c4cnc(NC(C)=O)cc43)nc(C(C)(F)F)n2)C1` [Example 172, N-(1′-(2-(1,1-difluoroethyl)-6-(((1s,3s)-3-methoxycyclobutyl)amino)pyrimidin-4-yl)-1′,2′-dihydrospiro[cyclopropane-1,3′-pyrrolo[3,2-c]pyridin]-6′-yl)acetamide trifluoroacetate] showed an IC50 (JH2 domain of human Tyk2) of no more than 0.01 µM and an IC50 [1] of 0.01 to 0.1 µM.

For `COC1(C)CC1Nc1cc(N2CC3(CC3)c3cnc(NC(C)=O)cc32)nc(C(C)(F)F)n1` (stereo not drawn) [Example 173, N-(1′-(2-(1,1-difluoroethyl)-6-((2-methoxy-2-methylcyclopropyl)amino)pyrimidin-4-yl)-1′,2′-dihydrospiro[cyclopropane-1,3′-pyrrolo[3,2-c]pyridin]-6′-yl)acetamide trifluoroacetate], the IC50 (JH2 domain of human Tyk2) was no more than 0.01 µM and the IC50 [1] was 0.01 to 0.1 µM.

With `CC(=O)Nc1cc2c(cn1)C1(CC1)CN2c1cc(NCC2CCN2C)nc(C(C)(F)F)n1` (stereo not drawn) [Example 174, N-(1′-(2-(1,1-difluoroethyl)-6-(((1-methylazetidin-2-yl)methyl)amino)pyrimidin-4-yl)-1′,2′-dihydrospiro[cyclopropane-1,3′-pyrrolo[3,2-c]pyridin]-6′-yl)acetamide] the IC50 (JH2 domain of human Tyk2) was 0.01 to 0.1 µM and the IC50 [1] was no less than 1 µM.

Compound `CC(=O)Nc1cc2c(cn1)C1(CC1)CN2c1cc(NC(C)C2COC2)nc(C(C)(F)F)n1` (stereo not drawn) [Example 175, N-(1′-(2-(1,1-difluoroethyl)-6-((1-(oxetan-3-yl)ethyl)amino)pyrimidin-4-yl)-1′,2′-dihydrospiro[cyclopropane-1,3′-pyrrolo[3,2-c]pyridin]-6′-yl)acetamide] has an IC50 (JH2 domain of human Tyk2) of no more than 0.01 µM and an IC50 [1] of 0.1 to 1 µM.

`CC(=O)Nc1cc2c(cn1)C1(CC1)CN2c1cc(NC2CC23CC3)nc(C(C)(F)F)n1` (stereo not drawn) [Example 176, N-(1′-(2-(1,1-difluoroethyl)-6-(spiro[2.2]pentan-1-ylamino)pyrimidin-4-yl)-1′,2′-dihydrospiro[cyclopropane-1,3′-pyrrolo[3,2-c]pyridin]-6′-yl)acetamide trifluoroacetate] was tested, and the IC50 (JH2 domain of human Tyk2) was no more than 0.01 µM and the IC50 [1] was 0.01 to 0.1 µM.

`COC1CC1Nc1cc(N2CC3(CC3)c3cnc(NC(C)=O)cc32)nc(C(C)(F)F)n1` (stereo not drawn) [Example 177, N-(1′-(2-(1,1-difluoroethyl)-6-((2-methoxycyclopropyl)amino)pyrimidin-4-yl)-1′,2′-dihydrospiro[cyclopropane-1,3′-pyrrolo[3,2-c]pyridin]-6′-yl)acetamide] gave an IC50 (JH2 domain of human Tyk2) of no more than 0.01 µM and an IC50 [1] of 0.01 to 0.1 µM.

In the case of `COCC(C)Nc1cc(N2CC3(CC3)c3cnc(NC(C)=O)cc32)nc(C(C)(F)F)n1` (stereo not drawn) [Example 178, N-(1′-(2-(1,1-difluoroethyl)-6-((1-methoxypropan-2-yl)amino)pyrimidin-4-yl)-1′,2′-dihydrospiro[cyclopropane-1,3′-pyrrolo[3,2-c]pyridin]-6′-yl)acetamide trifluoroacetate], the IC50 (JH2 domain of human Tyk2) is reported as no more than 0.01 µM and the IC50 [1] is reported as 0.01 to 0.1 µM.

With `CC(=O)Nc1cc2c(cn1)C1(CC1)CN2c1cc(NC2CCOC2)nc(C(C)(F)F)n1` (stereo not drawn) [Example 179, N-(1′-(2-(1,1-difluoroethyl)-6-((tetrahydrofuran-3-yl)amino)pyrimidin-4-yl)-1′,2′-dihydrospiro[cyclopropane-1,3′-pyrrolo[3,2-c]pyridin]-6′-yl)acetamide trifluoroacetate] the IC50 (JH2 domain of human Tyk2) was no more than 0.01 µM and the IC50 [1] was 0.01 to 0.1 µM.

In the case of `CC(=O)Nc1cc2c(cn1)C1(CC1)CN2c1cc(NCC(C)N(C)C)nc(C(C)(F)F)n1` (stereo not drawn) [Example 180, N-(1′-(2-(1,1-difluoroethyl)-6-((2-(dimethylamino)propyl)amino)pyrimidin-4-yl)-1′,2′-dihydrospiro[cyclopropane-1,3′-pyrrolo[3,2-c]pyridin]-6′-yl)acetamide trifluoroacetate], the IC50 (JH2 domain of human Tyk2) is reported as 0.01 to 0.1 µM and the IC50 [1] is reported as 0.1 to 1 µM.

With `CC(=O)Nc1cc2c(cn1)C1(CC1)CN2c1cc(NC2CCSC2)nc(C(C)(F)F)n1` (stereo not drawn) [Example 181, N-(1′-(2-(1,1-difluoroethyl)-6-((tetrahydrothiophen-3-yl)amino)pyrimidin-4-yl)-1′,2′-dihydrospiro[cyclopropane-1,3′-pyrrolo[3,2-c]pyridin]-6′-yl)acetamide] the IC50 (JH2 domain of human Tyk2) was no more than 0.01 µM and the IC50 [1] was 0.01 to 0.1 µM.

With `CC(=O)Nc1cc2c(cn1)C1(CC1)CN2c1cc(NC2CC2C)nc(C(C)(F)F)n1` (stereo not drawn) [Example 182, N-(1′-(2-(1,1-difluoroethyl)-6-((2-methylcyclopropyl)amino)pyrimidin-4-yl)-1′,2′-dihydrospiro[cyclopropane-1,3′-pyrrolo[3,2-c]pyridin]-6′-yl)acetamide trifluoroacetate] the IC50 (JH2 domain of human Tyk2) was no more than 0.01 µM and the IC50 [1] was 0.01 to 0.1 µM.

Work on `CC(=O)Nc1cc2c(cn1)C1(CC1)CN2c1cc(C)cc(N2CCN(C)C(C(F)F)C2)n1` (stereo not drawn) [Example 183, N-(1′-(6-(3-(difluoromethyl)-4-methylpiperazin-1-yl)-4-methylpyridin-2-yl)-1′,2′-dihydrospiro[cyclopropane-1,3′-pyrrolo[3,2-c]pyridin]-6′-yl)acetamide] yielded an IC50 (JH2 domain of human Tyk2) of 0.1 to 1 µM and an IC50 [1] of no less than 1 µM.

`CC(=O)Nc1cc2c(cn1)C1(CC1)CN2c1cc(C)cc(N2CCC(F)(F)C2)n1` [Example 184, N-(1′-(6-(3,3-difluoropyrrolidin-1-yl)-4-methylpyridin-2-yl)-1′,2′-dihydrospiro[cyclopropane-1,3′-pyrrolo[3,2-c]pyridin]-6′-yl)acetamide] showed an IC50 (JH2 domain of human Tyk2) of 0.01 to 0.1 µM and an IC50 [1] of 0.1 to 1 µM.

Compound `COCCOC1CCN(c2cc(C)cc(N3CC4(CC4)c4cnc(NC(C)=O)cc43)n2)C1` (stereo not drawn) [Example 185, N-(1′-(6-(3-(2-methoxyethoxy)pyrrolidin-1-yl)-4-methylpyridin-2-yl)-1′,2′-dihydrospiro[cyclopropane-1,3′-pyrrolo[3,2-c]pyridin]-6′-yl)acetamide] has an IC50 (JH2 domain of human Tyk2) of 0.1 to 1 µM and an IC50 [1] of no less than 1 µM.

For `CC(=O)Nc1cc2c(cn1)C1(CC1)CN2c1cc(C)cc(N2CCC(O)(C(F)(F)F)C2)n1` (stereo not drawn) [Example 186, N-(1′-(6-(3-hydroxy-3-(trifluoromethyl)pyrrolidin-1-yl)-4-methylpyridin-2-yl)-1′,2′-dihydrospiro[cyclopropane-1,3′-pyrrolo[3,2-c]pyridin]-6′-yl)acetamide], the IC50 (JH2 domain of human Tyk2) was 0.1 to 1 µM and the IC50 [1] was no less than 1 µM.
